Like-named read-outs stand apart in the source and are kept apart here.
Columns and labels:
NCI/ADR = experiment: Inhibition of proliferation / cytotoxicity, NCI/ADR; format: cell-based; details: NCI/ADR multi-drug resistant breast cancer cell line, read-out: Tumor Cell Line (IC50, nM) NCI/ADR
Experimental: (§1) The biological activity of compounds of this invention was evaluated by measuring their inhibitory effect on the proliferation of various tumor cell lines. MCF-7, A549, and SKOV-3 are human breast, lung, and ovary cancer cell lines, respectively. NCI/ADR is a multi-drug resistant breast cancer cell line. CCRF-CEM and CCRF-CEM/PTX are human leukemia cell lines, the latter being a paclitaxel-resistant subline. LNCaP is a prostate cancer cell line.

MCF-7 = experiment: Inhibition of proliferation / cytotoxicity, MCF-7; format: cell-based; details: MCF-7 human breast cancer cell line, read-out: Tumor Cell Line (IC50, nM) MCF-7
Experimental: as §1

SKOV-3 = experiment: Inhibition of proliferation / cytotoxicity, SKOV-3; format: cell-based; details: SKOV-3 human ovary cancer cell line, read-out: Tumor Cell Line (IC50, nM) SKOV-3
Experimental: as §1

LNCaP = experiment: Inhibition of proliferation / cytotoxicity, LNCaP; format: cell-based; details: LNCaP prostate cancer cell line, read-out: Tumor Cell Line (IC50, nM) LNCaP
Experimental: as §1

A549 = experiment: Inhibition of proliferation / cytotoxicity, A549; format: cell-based; details: A549 human lung cancer cell line; read-out: Tumor Cell Line (IC50, nM) A549
Experimental: as §1

CCRF-CEM = experiment: Inhibition of proliferation / cytotoxicity, CCRF-CEM; format: cell-based; details: CCRF-CEM human leukemia cell line; read-out: Tumor Cell Line (IC50, nM) CCRF-CEM
Experimental: as §1

MB 49 cells = experiment: Cytotoxicity against MB 49 murine bladder cancer cells; format: cell-based
Excerpt: Table 5 presents data on the cytotoxicity of LMB and selected compounds of this invention against MB 49 cells, a line of murine bladder cancer cells.

[1] = Mouse maximum tolerated dose, single dose intravenous; format: in vivo; details: mice, single dose intravenous administration
Experimental: The maximum tolerated dose (MTD) in mice, upon single dose intravenous administration was determined for a representative selection of compounds. The data are summarized in Table 4, with comparative data for LMB included.

CCRF-CEM/PTX = experiment: Inhibition of proliferation / cytotoxicity, CCRF-CEM/PTX; format: cell-based; details: CCRF-CEM/PTX paclitaxel-resistant human leukemia subline; read-out: Tumor Cell Line (IC50, nM) CCRF-CEM/PTX
Experimental: as §1

K562 cells = experiment: Cytotoxicity against Bcr-Abl positive K562 cells; format: cell-based; details: K562, Bcr-Abl positive CML cell line
Excerpt: Data was also obtained for the cytotoxicity of several compounds of this invention against K562, a Bcr-Abl positive CML cell line, as shown in Table 3 with comparative data for LMB included.

[2] = Kudo et al., Exp. Cell Res. 1998; cited from earlier work
mammalian cells = details: Hamamoto et al., J. Antibiotics 1983; cited from earlier work
T24 = experiment: Cytotoxicity against human bladder cancer cells T24; format: cell-based; details: T-24
Experimental: (§2) Additionally, the cytotoxicity of LMB was determined against two lines of human bladder cancer cells (UMUC-3 and T24).

[3] = phase 1 trial halted in 1994; cited from earlier work
UMUC-3 = experiment: Cytotoxicity against human bladder cancer cells UMUC-3; format: cell-based; details: UMUC3; UMUC-3 human bladder cancer cells
Experimental: as §2

SMILES	IC50 (NCI/ADR)	IC50 (MCF-7)	IC50 (SKOV-3)	IC50 (LNCaP)	IC50 (A549)	IC50 (CCRF-CEM)	IC50 (CCRF-CEM/PTX)	other results
CCC(C=CC1OC(=O)C=CC1C)=CC(C)CC=CC(C)=CC(C)C(=O)C(C)C(O)C(C)CC(C)=CC(=O)NCCCCCNC(=O)COc1ccc(C2=NC(=Cc3ccc(-c4cccs4)n3B(F)F)C=C2)cc1 (stereo not drawn) [Compound 20]	1000 nM	210 nM	570 nM	87.4 nM	250 nM			
CCC(C=CC1OC(=O)C=CC1C)=CC(C)CC=CC(C)=CC(C)C(=O)C(C)C(O)C(C)CC(C)=CC(=O)NCCCN1CCOCC1 (stereo not drawn) [Compound 8]	39 nM	0.3 nM	2.5 nM	0.5 nM	0.84 nM	0.98 nM	2.1 nM	IC50 (MB 49 cells): 6.8 nM; Mouse MTD [1]: 20 mg/kg; IC50 (K562 cells): 1 nM
CCC(C=CC1OC(=O)C=CC1C)=CC(C)CC=CC(C)=CC(C)C(=O)C(C)C(O)C(C)CC(C)=CC(=O)NCC(=O)O (stereo not drawn) [Compound 21]	260 nM	31 nM	57 nM	28.6 nM	37 nM			
CCC(C=CC1OC(=O)C=CC1C)=CC(C)CC=CC(C)=CC(C)C(=O)C(C)C(O)C(C)CC(C)=CC(=O)NCc1c(C)c(=O)n2c(=O)c(C)c(C)n12 (stereo not drawn) [Compound 18]	380 nM	3.4 nM	15 nM		4.3 nM			
CCC(C=CC1OC(=O)C=CC1C)=CC(C)CC=CC(C)=CC(C)C(=O)C(C)C(O)C(C)CC(C)=CC(=O)NCCNC (stereo not drawn) [Compound 16]	460 nM	3.2 nM	9.7 nM	27.2 nM	3.5 nM	1.8 nM	29 nM	
CCC(C=CC1OC(=O)C=CC1C)=CC(C)CC=CC(C)=CC(C)C(=O)C(C)C(O)C(C)CC(C)=CC(=O)NCCNC(=O)OC(C)(C)C (stereo not drawn) [Compound 6]	34 nM	0.32 nM	1.2 nM		1.3 nM	1.1 nM	2.3 nM	
CCC(C=CC1OC(=O)C=CC1C)=CC(C)CC=CC(C)=CC(C)C(=O)C(C)C(O)C(C)CC(C)=CC(=O)NCCC1OCCO1 (stereo not drawn) [Compound 11]	5.8 nM	0.3 nM	1.5 nM		0.67 nM	0.43 nM	0.47 nM	
CCC(C=CC1OC(=O)C=CC1C)=CC(C)CC=CC(C)=CC(C)C(=O)C(C)C(O)C(C)CC(C)=CC(=O)NCC(=O)OC (stereo not drawn) [Compound 10]	4.6 nM	0.3 nM	2.7 nM	0.8 nM	1.4 nM	0.63 nM	0.5 nM	
CCC(C=CC1OC(=O)C=CC1C)=CC(C)CC=CC(C)=CC(C)C(=O)C(C)C(O)C(C)CC(C)=CC(=O)NC (stereo not drawn) [Compound 1]	2.1 nM	0.27 nM	1.7 nM	0.8 nM	0.36 nM	0.69 nM	0.46 nM	Mouse MTD [1]: 5 mg/kg
CCC(C=CC1OC(=O)C=CC1C)=CC(C)CC=CC(C)=CC(C)C(=O)C(C)C(O)C(C)CC(C)=CC(=O)Nc1ccc2cn[nH]c2c1 (stereo not drawn) [Compound 5]	34 nM	2 nM	5.9 nM		3.3 nM	3.1 nM	9 nM	
CCC(C=CC1OC(=O)C=CC1C)=CC(C)CC=CC(C)=CC(C)C(=O)C(C)C(O)C(C)CC(C)=CC(=O)NCCN (stereo not drawn) [Compound 15]	630 nM	4.6 nM	41 nM	4.2 nM	15 nM	17 nM	110 nM	
CCC(C=CC1OC(=O)C=CC1C)=CC(C)CC=CC(C)=CC(C)C(=O)C(C)C(O)C(C)CC(C)=CC(=O)NCCNC(C)C (stereo not drawn) [Compound 17]	740 nM	3.5 nM	44 nM		4.7 nM			
CCC(C=CC1OC(=O)C=CC1C)=CC(C)CC=CC(C)=CC(C)C(=O)C(C)C(O)C(C)CC(C)=CC(=O)NCCN(C)C (stereo not drawn) [Compound 7]	110 nM	0.61 nM	2.8 nM	0.7 nM	2.2 nM	1.4 nM	3.1 nM	Mouse MTD [1]: 15 mg/kg
CCC(=C/[C@H](C)C/C=C/C(C)=C/[C@@H](C)C(=O)[C@@H](C)[C@H](O)[C@@H](C)C/C(C)=C/C(=O)NCCCCCCNC(=O)CCCC[C@H]1SC[C@@H]2NC(=O)N[C@@H]21)/C=C/[C@@H]1OC(=O)C=C[C@@H]1C [biotinylated LMB]								activity of LMB analog [2]: active
CCC(=C/[C@H](C)C/C=C/C(C)=C/[C@@H](C)C(=O)[C@@H](C)[C@H](O)[C@@H](C)C/C(C)=C/C(=O)O)/C=C/[C@@H]1OC(=O)C=C[C@@H]1C [LMB, Leptomycin B, reference compound]					0.3 nM	0.65 nM	0.41 nM	IC50 (NCI/ADR; Homo sapiens, NCI/ADR-RES): 1 nM; cytotoxicity towards mammalian cells (mammalian cells): remarkable cytotoxicity; EC50 (T24): 1.2 nM; IC50 (MB 49 cells; Mus musculus, MB49): 1.8 nM; toxicity in phase 1 trial [3]: extreme toxicity; IC50 (MCF-7; MCF7): 0.29 nM; Mouse MTD [1]: 2.5 mg/kg; IC50 (SKOV-3; SK-OV-3): 1.5 nM; IC50 (LNCaP; Homo sapiens): 0.3 nM; EC50 (UMUC-3): 0.33 nM; IC50 (K562 cells; Homo sapiens): 0.6 nM
CCC(C=CC1OC(=O)C=CC1C)=CC(C)CC=CC(C)=CC(C)C(=O)C(C)C(O)C(C)CC(C)=CC(=O)NCCO (stereo not drawn) [Compound 2]	27 nM	0.78 nM	2.6 nM		2.2 nM	2.4 nM	2.8 nM	
CCC(C=CC1OC(=O)C=CC1C)=CC(C)CC=CC(C)=CC(C)C(=O)C(C)C(O)C(C)CC(C)=CC(=O)NCCOc1ccccc1 (stereo not drawn) [Compound 9]	37 nM	0.64 nM	4.3 nM		2.8 nM	1.9 nM	2.5 nM	
CCC(=C/[C@H](C)C/C=C/C(C)=C/[C@@H](C)C(=O)[C@@H](C)[C@H](O)[C@@H](C)C/C(C)=C/C(=O)OC)/C=C/[C@@H]1OC(=O)CC(C[N+](=O)[O-])[C@@H]1C (stereo partly drawn) [nitromethyl valerolactone LMB analog]								activity of LMB analog [2]: inactive
CCC(C=CC1OC(=O)C=CC1C)=CC(C)CC=CC(C)=CC(C)C(=O)C(C)C(O)C(C)CC(C)=CC(=O)NCCCCNC(=O)OC(C)(C)C (stereo not drawn) [Compound 14]	33 nM	0.3 nM	2.5 nM		1.6 nM	1.7 nM	2.4 nM	
CCC(C=CC1OC(=O)C=CC1C)=CC(C)CC=CC(C)=CC(C)C(=O)C(C)C(O)C(C)CC(C)=CC(=O)NCCNC(=O)CCC1=NC(=Cc2c(C)cc(C)n2B(F)F)C=C1 (stereo not drawn) [Compound 19]	300 nM	3.4 nM	20 nM	1.6 nM	4.6 nM			
CCC(C=CC1OC(=O)C=CC1C)=CC(C)CC=CC(C)=CC(C)C(=O)C(C)C(O)C(C)CC(C)=CC(=O)NCCc1cccnc1 (stereo not drawn) [Compound 4]	19 nM	0.32 nM	2.8 nM	0.5 nM	0.84 nM	1 nM	1.4 nM	IC50 (MB 49 cells): 5.9 nM; Mouse MTD [1]: 40 mg/kg; IC50 (K562 cells): 1.7 nM
CCC(C=CC1OC(=O)C=CC1C)=CC(C)CC=CC(C)=CC(C)C(=O)C(C)C(O)C(C)CC(C)=CC(=O)NCc1ccc(-c2ccccc2)cc1 (stereo not drawn) [Compound 3]	150 nM	3.7 nM	13 nM		13 nM	3.5 nM	17 nM	

Source: patent publication US7655808B2, “Leptomycin compounds” (priority 2004, dated 2010)
